Measured values published in patent publication US20230201285A1, “GRANULAR C[…] WATER DISPERSIBLE CANNABINOIDS AND METHODS OF MAKING THE SAME” (priority 2021, published 2023).

Experiment: Emulsion formation of CBD powder in water with emulsifier or co-solvent
Type: physicochemical
Details: 200 mg CBD powder, 40 mL water, shaken five minutes
Procedure: A study was conducted with several different emulsifiers or co-solvents added to water and CBD powder.
In a first experiment, five 50 mL centrifuge tubes were each filled with 40 mL of water and 200 mg of CBD powder. Then, increasing amounts of PEG-400 (65 mg, 130 mg, 195 mg, 260 mg, and 650 mg) were added respectively to each centrifuge tube, which were then placed on a tabletop shaker and mechanically shaken on high for five minutes. […] No emulsion, however, was immediately formed after mixing.
In a second experiment, four 50 mL centrifuge tubes were each filled with 40 mL of water and 200 mg of CBD powder. Then, increasing amounts of TWEEN 80 (160 mg, 320 mg, 800 mg, and 1600 mg) were added respectively to each centrifuge tube, which were then placed on a tabletop shaker and mechanically shaken on high for five minutes. […] Further, CBD powder was still floating around in each tube.
(§1) In a third experiment, four 50 mL centrifuge tubes were each filled with 40 mL of water and 200 mg of CBD powder. Then, increasing amounts of sodium dodecyl sulfate (SDS) (10 mg, 25 mg, 50 mg, and 100 mg) were added respectively to each centrifuge tube, which were then placed on a tabletop shaker and mechanically shaken on high for five minutes. […] Further, CBD residue was observed on the bottom of each tube.
as §1, with “Finally, in” for “In”, “fourth” for “third”, “glycerol monostearate (GMS)” for “sodium dodecyl sulfate (SDS)”, “bottom and sides” for “bottom”

## C=C(C)[C@@H]1CCC(C)=C[C@H]1c1c(O)cc(CCCCC)cc1O [CBD powder, cannabidiol]
GMS 10-100 mg
  emulsion formation: no emulsion was formed in any tube
PEG-400 65-650 mg
  emulsion formation: No emulsion
SDS 10-100 mg
  emulsion formation: no emulsion was formed in any tube
TWEEN 80 160-1600 mg
  emulsion formation: no emulsion was formed in any tube
